According to ChEMBL document CHEMBL1134820, “Synthesis of antitumor dendritic imides” (Bioorg Med Chem Lett, 2001):

How the values were obtained:
[1] = test system: HT-29; assay: Cytotoxic effect on human colon carcinoma HT-29 cell line; format: functional; conditions: read-out: ID50 (the source's name)
[2] = target: Tyrosine-protein kinase Lck (Homo sapiens, UniProt P06239); assay: Inhibition of lck catalytic domain expressed in baculovirus
Chain of Tyrosine-protein kinase Lck (P06239 whole entry, the tested form may be a part): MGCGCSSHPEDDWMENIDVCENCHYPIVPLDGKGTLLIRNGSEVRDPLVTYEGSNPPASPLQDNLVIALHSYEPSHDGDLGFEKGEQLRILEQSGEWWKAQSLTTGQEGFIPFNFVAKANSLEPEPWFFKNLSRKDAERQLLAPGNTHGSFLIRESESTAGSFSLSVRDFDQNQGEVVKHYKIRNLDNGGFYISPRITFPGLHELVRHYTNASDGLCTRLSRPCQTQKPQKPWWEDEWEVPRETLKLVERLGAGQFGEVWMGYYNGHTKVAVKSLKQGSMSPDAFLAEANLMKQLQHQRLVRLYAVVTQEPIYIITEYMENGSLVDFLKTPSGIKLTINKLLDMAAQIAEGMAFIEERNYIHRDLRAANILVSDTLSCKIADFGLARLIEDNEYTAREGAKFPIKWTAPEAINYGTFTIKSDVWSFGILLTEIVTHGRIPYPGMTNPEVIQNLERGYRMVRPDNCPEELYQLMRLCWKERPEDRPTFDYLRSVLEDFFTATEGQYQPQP

IC50 [2] [µM]	Compound	IC50 [1] [µM]
–	N#CCCN(CCC#N)CCCN(CCCN(CCC#N)CCC#N)CCCN(CCN)CCCN(CCCN(CCC#N)CCC#N)CCCN(CCC#N)CCC#N	> 100
–	NCCCN(CCCN)CCCN(CCCN(CCCN)CCCN)CCCN(CCCN(CCCN(CCCN)CCCN)CCCN(CCCN)CCCN)CCN1C(=O)c2cccc3cccc(c23)C1=O	44
> 50	N#CCCN(CCC#N)CCCN(CCCN(CCC#N)CCC#N)CCCN(CCCN(CCCN(CCC#N)CCC#N)CCCN(CCC#N)CCC#N)CCN1C(=O)c2cccc3cccc(c23)C1=O	> 100
–	N#CCCN(CCC#N)CCCN(CCCN(CCC#N)CCC#N)CCCN(CCCN(CCCN(CCC#N)CCC#N)CCCN(CCC#N)CCC#N)CCN1C(=O)c2cccc3cc(N)cc(c23)C1=O	> 100
–	N#CCCN(CCC#N)CCCN(CCCN(CCC#N)CCC#N)CCCN(CCCN(CCCN(CCC#N)CCC#N)CCCN(CCC#N)CCC#N)CCN1C(=O)c2cccc3cc([N+](=O)[O-])cc(c23)C1=O	> 100
> 50	N#CCCN(CCC#N)CCCN(CCCN(CCC#N)CCC#N)CCCN(CCCN(CCCN(CCC#N)CCC#N)CCCN(CCC#N)CCC#N)CCN1C(=O)C(c2ccccc2)=C(c2ccccc2)C1=O	57
–	NCCCN(CCCN)CCCN(CCCN(CCCN)CCCN)CCCN(CCCN(CCCN(CCCN)CCCN)CCCN(CCCN)CCCN)CCN1C(=O)C(c2ccccc2)=C(c2ccccc2)C1=O	100
–	CN(C)CCN1C(=O)c2cccc3cc(N)cc(c23)C1=O [AMONAFIDE]	38
–	O=C1c2cccc3cccc(c23)C(=O)N1CCNCCCNCCN1C(=O)c2cccc3cccc(c23)C1=O [ELINAFIDE]	0.014
